Experimental data reported in patent EP1561465A2, “Methods of use of fluoroquinolone compounds against bacteria” (LG Life Sciences, Ltd., priority 1999, dated 2001).
Values after ≈ are worked out from the molar mass of the structure shown. Where two headings read alike, the source gives them in different places.

Columns and labels:
[1] = tested on: Enterococcus faecalis; test: MIC by agar macrodilution (NCCLS), 373 Gram positive isolates, Athens 1998; format: cell-based
[2] = tested on: Streptococcus pneumoniae; test: MIC by E-test (broth microdilution for gemifloxacin), 107 pneumococcal carrier isolates, Athens 1998; format: cell-based; conditions: for MIC Range: in µg/mL (unit assumed)
Procedure: Susceptibility testing was performed by agar dilution or epsilometer method (E-test), as recommended by the NCCLS. […] The susceptibility profiles of the strains were assessed using the Epsilometer method (E-test). The isolates were subdivided into two groups according to their penicillin susceptibility patterns (penicillin-susceptible and penicillin-intermediate.

[3] = tested on: Staphylococcus aureus; test: MIC by agar macrodilution (NCCLS), 373 Gram positive isolates, Athens 1998; format: cell-based
[4] = tested on: Campylobacter jejuni; test: MIC by agar dilution (NCCLS M7-A4), 288 enteropathogenic isolates, gemifloxacin and 15 other antimicrobials; conditions: for MIC: Campylobacter jejuni; for % Susceptible / MIC (mg/L) 50% / MIC (mg/L) 90% / MIC (mg/L) Range: Campylobacter jejuni N= 91
[5] = tested on: Yersinia enterocolitica; test: as above; format: cell-based; conditions: for MIC / % Susceptible / MIC (mg/L) 50% / MIC (mg/L) 90% / MIC (mg/L) Range: Yersinia enterocolitica N= 22
[6] = tested on: Aeromonas spp.; test: as above; format: cell-based; conditions: for MIC / % Susceptible / MIC (mg/L) 50% / MIC (mg/L) 90% / MIC (mg/L) Range: Aeromonas spp. N= 16
[7] = tested on: Shigella spp.; test: as above; format: cell-based; conditions: for MIC / % Susceptible / MIC (mg/L) 50% / MIC (mg/L) 90% / MIC (mg/L) Range: Shigella spp. N= 21
Procedure: [A. hydrophila (12), and A. sobria (4)], and 91 Campylobacter jejuni. […] The strains were stored in skimmed-milk at -80 °C until studied.
The plates were incubated aerobically at 35 °C for 24 h, except for Campylobacter jejuni, where a microaerophilic atmosphere was obtained by using Campy Pack (Becton Dickinson, Cockeysville, MD, USA), and incubation was for 48 h. All organisms were tested with an inoculum of ≅ 10^4 cfu/spot. MICs were defined as the lower antibiotic concentration with no visible growth.

[8] = tested on: Salmonella spp.; test: as above; format: cell-based; conditions: for Rates of non-susceptible microorganisms / susceptible isolates / isolates being resistant: Salmonella spp.; for susceptible isolates: breakpoints; for MIC: Salmonella
[9] = tested on: Hafnia alvei; test: as above; format: cell-based; conditions: Hafnia alvei N= 32
[10] = tested on: Streptococcus pneumoniae; test: MIC by agar dilution (NCCLS), 411 isolates Buenos Aires 1998-99; format: cell-based; conditions: S. pneumoniae
[11] = continuation of the preceding table (title not shown), 14 isolates
[12] = 24 h, read-out: MIC (mg/L) Range

Compound: CN[C@H](CC(C)C)C(=O)N[C@H]1C(=O)N[C@@H](CC(N)=O)C(=O)N[C@H]2C(=O)N[C@H]3C(=O)N[C@H](C(=O)N[C@H](C(=O)O)c4cc(O)cc(O)c4-c4cc3ccc4O)[C@H](O)c3ccc(c(Cl)c3)Oc3cc2cc(c3O[C@@H]2O[C@H](CO)[C@@H](O)[C@H](O)[C@H]2O[C@H]2C[C@](C)(N)[C@H](O)[C@H](C)O2)Oc2ccc(cc2Cl)[C@H]1O [Vancomycin]
- MIC distribution (µg/ml) 0.03 [1]: 0
- MIC distribution (µg/ml) 0.06 [1]: 0
- MIC distribution (µg/ml) 0.125 [1]: 0
- MIC distribution (µg/ml) 0.25 [1]: 0
- MIC distribution (µg/ml) 0.5 [1]: 0
- MIC distribution (µg/ml) 1 [1]: 4
- MIC distribution (µg/ml) 4 [1]: 6
- MIC distribution (µg/ml) 8 [1]: 0
- MIC distribution (µg/ml) 16 [1]: 0
- MIC distribution (µg/ml) ≤0.015 [1]: 0
- MIC50 ([1]; Enterococcus faecalis): 2 µg/mL (≈ 1.38 µM)
- MIC90 ([1]; Enterococcus faecalis): 4 µg/mL (≈ 2.76 µM)
- MIC50 [1, 11]: 2 µg/mL (≈ 1.38 µM)
- MIC90 [1, 11]: 4 µg/mL (≈ 2.76 µM)
- MIC Range [1, 11]: 1 to 4 µg/mL
- MIC distribution (µg/ml) 1 ([1]; number of isolates at MIC 1 µg/ml, n = 81): 10
- MIC distribution (µg/ml) 4 ([1]; number of isolates at MIC 4 µg/ml, n = 81): 40
- MIC Range ([2]; Penicillin-intermediate S. pneumoniae (n = 24), E-test): 0.19-1.5
- MIC90 ([2]; Penicillin-intermediate S. pneumoniae (n = 24), E-test, unit assumed): 1 µg/mL (≈ 0.69 µM)
- MIC Range ([2]; Penicillin-susceptible S. pneumoniae (n = 107), E-test): 0.064-2
- MIC90 ([2]; Streptococcus pneumoniae): 1 µg/mL (≈ 0.69 µM)
- MIC50 ([2]; Streptococcus pneumoniae, Penicillin-intermediate S. pneumoniae (n = 24), E-test): 0.75 µg/mL (≈ 0.518 µM)
- MIC50 ([2]; Streptococcus pneumoniae, Penicillin-susceptible S. pneumoniae (n = 107), E-test): 0.5 µg/mL (≈ 0.345 µM)
- MIC Range ([3]; Methicillin-susceptible Staphylococcus aureus (n = 85)): 0.5 to 2 µg/mL
- MIC50 ([3]; Staphylococcus aureus): 1 µg/mL (≈ 0.69 µM)
- MIC90 ([3]; Staphylococcus aureus): 2 µg/mL (≈ 1.38 µM)

Compound: CC1(C)S[C@@H]2[C@H](NC(=O)[C@H](N)c3ccccc3)C(=O)N2[C@H]1C(=O)O [ampicillin]
- MIC ([4]; read-out: MIC (mg/L) 50%): 8 mg/L (≈ 22.9 µM)
- MIC ([4]; read-out: MIC (mg/L) 90%): 32 mg/L (≈ 91.6 µM)
- MIC [5, 12]: 32 to 64 mg/L (≈ 91.6 to 183 µM)
- susceptibility of isolates ([5]; Yersinia enterocolitica): non susceptible
- MIC ([5]; read-out: MIC (mg/L) 50%): 32 mg/L (≈ 91.6 µM)
- MIC ([5]; read-out: MIC (mg/L) 90%): 64 mg/L (≈ 183 µM)
- susceptibility of isolates ([6]; Aeromonas spp.): non susceptible
- MIC ([6]; read-out: MIC (mg/L) 50%): > 128 mg/L
- MIC ([6]; read-out: MIC (mg/L) 90%): > 128 mg/L
- susceptible isolates ([7]; Shigella spp., breakpoints): 43%
- MIC ([7]; read-out: MIC (mg/L) 50%): 64 mg/L (≈ 183 µM)
- MIC ([7]; read-out: MIC (mg/L) 90%): > 128 mg/L
- Rates of non-susceptible microorganisms [8]: 23%
- susceptible isolates [8]: 77%
- MIC ([8]; read-out: MIC (mg/L) 50%, Salmonella spp. N= 106): 4 mg/L (≈ 11.4 µM)
- MIC ([8]; read-out: MIC (mg/L) 90%, Salmonella spp. N= 106): > 128 mg/L
- MIC [9, 12]: 2 to 64 mg/L (≈ 5.72 to 183 µM)
- MIC ([9]; read-out: MIC (mg/L) 50%): 16 mg/L (≈ 45.8 µM)
- MIC ([9]; read-out: MIC (mg/L) 90%): 64 mg/L (≈ 183 µM)

Compound: co-trimoxazole
- isolates being resistant ([4]; C. jejuni): 4%
- MIC90 ([10]; Penicillin intermediate (n = 17)): 8 µg/mL
- MIC90 ([10]; Penicillin resistant (n = 4)): >16 µg/mL
- MIC90 ([10]; Penicillin susceptible (n = 69)): 8 µg/mL
- Rates of non-susceptible microorganisms [8]: 4%
- isolates being resistant [8]: 4%

Compound: colistin
- % Susceptible [4]: 3%
- MIC (mg/L) 50% [4]: 4 mg/L
- MIC (mg/L) 90% [4]: 8 mg/L
- MIC (mg/L) Range [4]: 1 to 32 mg/L
- % Susceptible [5]: 100%
- MIC (mg/L) 50% [5]: 1 mg/L
- MIC (mg/L) 90% [5]: 1 mg/L
- MIC (mg/L) Range [5]: 0.5 to 1 mg/L
- % Susceptible [6]: 81%
- MIC (mg/L) 50% [6]: 2 mg/L
- MIC (mg/L) 90% [6]: 4 mg/L
- MIC (mg/L) Range [6]: 0.25 to 32 mg/L
- % Susceptible [7]: 100%
- MIC (mg/L) 50% [7]: 0.25 mg/L
- MIC (mg/L) 90% [7]: 0.25 mg/L
- MIC (mg/L) Range [7]: 0.25 mg/L
- % Susceptible ([8]; Salmonella spp. N= 106): 32%
- MIC (mg/L) 50% ([8]; Salmonella spp. N= 106): 8 mg/L
- MIC (mg/L) 90% ([8]; Salmonella spp. N= 106): 8 mg/L
- susceptible isolates [8]: 32%
- % Susceptible [9]: 6%
- MIC (mg/L) 50% [9]: 8 mg/L
- MIC (mg/L) 90% [9]: 16 mg/L
- MIC (mg/L) Range [9]: 0.5 to 16 mg/L

Compound: gentamicin
- % Susceptible [4]: 100%
- MIC (mg/L) 50% [4]: 0.25 mg/L
- MIC (mg/L) 90% [4]: 0.5 mg/L
- MIC (mg/L) Range [4]: 0.12 to 1 mg/L
- % Susceptible [5]: 100%
- MIC (mg/L) 50% [5]: 1 mg/L
- MIC (mg/L) 90% [5]: 1 mg/L
- MIC (mg/L) Range [5]: 0.5 to 1 mg/L
- % Susceptible [6]: 100%
- MIC (mg/L) 50% [6]: 0.5 mg/L
- MIC (mg/L) 90% [6]: 1 mg/L
- MIC (mg/L) Range [6]: 0.25 to 1 mg/L
- % Susceptible [7]: 100%
- MIC (mg/L) 50% [7]: 1 mg/L
- MIC (mg/L) 90% [7]: 1 mg/L
- MIC (mg/L) Range [7]: 0.5 to 1 mg/L
- isolates being resistant [8]: 4%
- % Susceptible ([8]; Salmonella spp. N= 106): 96%
- MIC (mg/L) 50% ([8]; Salmonella spp. N= 106): 0.25 mg/L
- MIC (mg/L) 90% ([8]; Salmonella spp. N= 106): 0.5 mg/L
- MIC (mg/L) Range ([8]; Salmonella spp. N= 106): 0.12 to 128 mg/L
- % Susceptible [9]: 100%
- MIC (mg/L) 50% [9]: 0.25 mg/L
- MIC (mg/L) 90% [9]: 0.5 mg/L
- MIC (mg/L) Range [9]: 0.25 to 0.5 mg/L
